Assay results from patent publication EP2131850B1, “EXTRACTS OF ASTER KORAIENSIS, AND PHARMACEUTICAL COMPOSITION AND FUNCTIONAL FOOD COMPRISING THE SAME” (Korea Institute of Oriental Medicine, priority 2007, dated 2008).
Values after ≈ are worked out from the molar mass of the structure shown.

Test system: production of advanced glycation endproducts (glycation of bovine serum albumin (BSA))
Experiment: In vitro inhibition of production of advanced glycation endproducts (BSA/fructose/glucose culture, fluorescence)
Type: biochemical
Conditions: for Inhibition (%) of production of advanced glycation endproducts Inhibition: cultured at 37 °C for 14 days
Experimental: For the in vitro analysis of the inhibitory effect cf each cf the leaf and stem extract of Aster koraiensis, the root extract of Aster koraiensis, the flower extract of Aster koraiensis, and the fractions cf each of the extracts, on the production cf advanced glycation endproducts, bovine serum albumin (hereinafter, referred to as BSA; Sigma, USA)) was selected as a protein source. BSA was added to 50 mM phosphate buffer (pH 7.4) to a concentration of 10 mg/mℓ. As a sugar source, a mixture of 0.2 M fructose and 0.2 M glucose was used. The fructose/glucose mixture was added to the prepared BSA solution. As test groups, each of the leaf and stem extract cf Aster koraiensis, the root extract cf Aster koraiensis, the flower extract of Aster koraiensis, and the hexane fraction, ethyl acetate fraction, butanol fraction and water fraction of each cf the extracts, was dissolved in distilled water. Then, each of the solutions was added to the BSA/sugar mixture and cultured at 37 °C for 14 days.
At this time, 0.02% sodium azide was added as an antibacterial agent. A control group was a culture of the BSA/sugar mixture, and the blank of each cf the test groups and the control group was not cultured after their preparation. Meanwhile, as a positive control for use as an index to determine the superiority cf the inventive material, aminoguanidine was used. Four samples for each of the cultures were prepared to minimize errors. After 14 days, the content of advanced glycation endproducts (AGEs) in each of the cultures was analyzed, and the analysis results were recorded. […] The amount cf advanced glycation endproducts having such properties was measured with a spectrofluorometer (excitation: 350 nm, and emission: 450 nm) to analyze the inhibition of the production of advanced glycation endproducts. […]
Each of the root extract and flower extract of Aster koraiensis, prepared in Example, were prepared into solutions having concentrations cf 10 µg/mℓ, 25 µg/mℓ and 50 µg/mℓ, respectively. […] After 14 days, the amount of advanced glycation endproducts produced in each of the cultures was measured with a spectrcfluorometer (excitation: 350 nm, and emission: 450 nm), and the measurement results are shown in Table 1 and FIG. 2.
The inhibition of the production of advanced glycation endproducts is calculated according to the following equation: Inhibition (%) of production = 100-(fluorescentintensityofsamplegroupfluorescentintensityofblankofsamplegroup)/(fluorenscentintensityofcontrolgroup-fluorescentintensityofblankofcontrolgroup)x100 [formula] […]
After 14 days, the amount cf advanced glycation endproducts produced in each cf the cultures was measured with a spectrcfluorometer (excitation: 350 nm, and emission: 450 nm).

## N=C(N)NN [Aminoguanidine]
Concentration 18.5 µg/mℓ
  Inhibition (%) of production of advanced glycation endproducts Inhibition: 12.70 ± 6.12%
Concentration 55.5 µg/mℓ
  Inhibition (%) of production of advanced glycation endproducts Inhibition: 39.46 ± 1.91%
Concentration 74.0 µg/mℓ
  Inhibition (%) of production of advanced glycation endproducts Inhibition: 50.68 ± 0.51%
Production of advanced glycation endproducts, BSA/sugar mixture, 14 days
  IC50 inhibitory concentration: 72.12 µg/mL (≈ 973 µM)
